Data from patent US12577232B2, “N-heterocycle substituted tryptamine derivatives and methods of using” (ENVERIC B[…] INC., priority 2024, dated 2026).
Where “and” joins values, the source holds several entries; their conditions need not be identical. Equal values may be shown once. Read-outs that look alike come from different tables or passages of the source.

How the values were obtained:
C57BL/6 mice = test: Mouse Head Twitch Response (HTR) assay to assess hallucinogenic potential; format: in vivo; details: for mean HTR / HTR compared with the HTR response for 5-Br-DMT (one-way ANOVA, Dunnett): 3 mg/kg i.p.; for mean HTR: 0-15 min interval (preliminary screening); for HTR compared with the HTR response for 5-Br-DMT (one-way ANOVA, Dunnett): alpha 0.05; for HTR: 0-15 min (dose curve)
Protocol: All experiments were approved by the University of Calgary Animal Care and Use Committee in accordance with Canadian Council on Animal Care guidelines. C57BL/6-Elite mixed sex mice were obtained from Charles River (8 weeks old). Until the first experiment, mice were group-housed, then single-housed on a 12:12 h light/dark schedule (lights on at 07:00 hours) with ad libitum access to food and water. Before any behavioral screening, mice were handled and exposed to the testing chamber for at least 5 min each day for three successive days and habituated to the experimental room 1 h before testing. The testing chamber was cleaned with a 70% ethanol solution between experiments to eliminate odor from other mice. Drug compounds (100 mM in DMSO) were diluted in sterile excipient (10% EtOH/15% PEG400 in ddH2O) to 3 mg/kg (preliminary screening) or 0.5, 2, 4, 7, and 10 mg/kg (dose-curve analysis) and administered using intraperitoneal (i.p.) drug injections. […] HTR was analyzed during the 0-to-15-minute window following drug administration. […] Mean HTR between 10 and 5 signifies reduced hallucinogenic potential relative to positive controls.

5-HT2A receptor = biological target: T1, 5-HT2A receptor (Homo sapiens, UniProt P28223); test: 5-HT2A receptor radioligand competition assay (SPA, [3H]ketanserin); format: binding; details: 1 nM [3H]ketanserin; membranes containing 5-HT2A; read-out: 5-HT2A, Ki
T1 construct: purchased PerkinElmer ES-313-M400UA
Protocol: Competition assays were performed as for 5-HT1A assays with the following differences. […] Determination of non-specific binding was carried out in the presence of […] of spiperone (S7395-250MG, Sigma-Aldrich). Equilibrium binding constant for ketanserin (Kd) was determined from saturation binding curves using the ‘one-site saturation binding analysis’ method in GraphPad PRISM software (Version 9.2.0).

[1] = Mouse plasma pharmacokinetics (PK) survey; format: in vivo; details: for AUC: male, C57BL6, mouse, read-out: AUCt0-tlast; for AUC / Cmax: ip; for Cmax: mouse
Protocol: The purpose of the study was to gain insight into the pharmacokinetic (PK) behaviour of drugs in rodents. In some contexts, drug exposure and other PK parameters may be linked to the onset and/or degree of drug efficacy. Toward the goal of assessing PK behaviour, objectives included the collection of plasma from male mice at various times after (1) a single ‘low’ IP (intraperitoneal) dose (4 mg/kg), and (2) a single ‘high’ IP dose (10 mg/kg) of drug for pharmacokinetic monitoring. The experiment was designed to enable the determination of key parameters (e.g., Cmax, AUC) and was conducted in partnership with Inotiv (Boulder, Colorado; www.inotiv.com; Studies 3533-2302132 and 3533-2302538).
The study which took part in two phases (No. 3533-2302132 and 3533-2302538) was conducted by CRO Inotiv (Boulder, CO) and was performed in accordance with the test facility standard operation procedures (SOPs), the World Health Organization Quality Practices in Basic Biomedical Research guidelines, and in compliance with all US state and federal regulations, including USDA Animal Welfare Act 9 CFR Parts 1-3. Federal Register 39129, Jul. 22, 1993. All mice were male, belonging to stain C57BL6 (supplier Envigo). Upon arrival at the facility, the mice were 6 weeks old and were acclimated 7 days prior to injection with food and water ad libitum (3 animals/cage).
Three cohorts of mice were included (n=6 per cohort): (1) control (vehicle treatment), (2) 4 mg/kg compound (XV), and (3) 10 mg/kg compound (XV). On day 0 of the study, animals were randomized into cohorts based on body weight. Dosing (i.p. dose route) was performed on Day 1. Sampling of plasma was performed under anesthesia (inhaled isoflurane) on 3 of 6 animals per cohort at 6 time points (15 min 30 min, 1 h, 2 h, 4 h, and 6 h post-dose) followed by sacrifice at 8 h post-dose, ex-sanguination and final plasma collection. Whole blood (100 μL) was collected for plasma preparation using K2EDTA on ice (centrifugation within 5 min of collection), for a final plasma volume of 50 μL. Samples were stored at −80° C. until analysis.
Bioanalytical analysis of plasma was carried out using standard LC-MS/MS procedures. Prior to analysis of plasma, drug-specific quantification metrics (e.g., standard curve, LOD, Rt) were pre-established using authentic standard (>95%). Calculated concentrations (ng/mL) of analyte were used to determine PK parameters (Cmax, AUC) within the limits of detection (LOD).

5-HT1A receptor = biological target: T2, 5-HT1A receptor (Homo sapiens, UniProt P08908); test: 5-HT1A receptor radioligand competition assay (SPA, [3H]8-hydroxy-DPAT); format: binding; details: 0.5 nM hot 8-hydroxy-DPAT; membranes containing 5-HT1A
T2 construct: purchased Perkin Elmer 6110501400UA
T2 sequence (P08908 1-422): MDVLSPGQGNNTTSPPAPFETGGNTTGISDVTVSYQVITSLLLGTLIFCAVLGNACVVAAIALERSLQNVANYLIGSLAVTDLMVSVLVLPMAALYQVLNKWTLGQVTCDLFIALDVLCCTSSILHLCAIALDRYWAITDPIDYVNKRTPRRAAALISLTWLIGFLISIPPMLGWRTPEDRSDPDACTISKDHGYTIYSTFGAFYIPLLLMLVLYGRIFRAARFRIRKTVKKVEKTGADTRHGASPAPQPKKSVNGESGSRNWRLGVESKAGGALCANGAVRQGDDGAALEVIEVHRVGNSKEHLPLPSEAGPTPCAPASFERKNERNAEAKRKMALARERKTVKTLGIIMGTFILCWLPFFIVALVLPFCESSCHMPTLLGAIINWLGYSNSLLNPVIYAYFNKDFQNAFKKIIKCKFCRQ
Protocol: 5-HT1A receptor. […] After incubation, the samples were read on a MicroBeta 2 Microplate Counter (perkinelmer.com). Non-specific binding was carried out in the presence of 100 μM of metergoline (M3668-500MG, Sigma-Aldrich). Equilibrium binding constant for 8-hydroxy-DPAT (KD) was determined from a saturation binding curve using one-site saturation binding analysis from GraphPad PRISM software (Version 9.2.0). Test compound was dissolved to 100 mM in dimethylsulfoxide (DMSO), and dilutions were carried out in assay buffer. […] Ki values were calculated from the competition displacement data using the competitive binding analysis from GraphPad PRISM software. […] Conversely, blank preparations lacking any drug (simply termed ‘DMSO’ samples) were used as negative controls, in addition to those containing tryptophan which is not known to bind the 5-HT1A receptor.

[2] = plasma, 4 mg/kg, male C57BL6 mice, plasma, 4 mg/kg i.p.
[3] = plasma, 10 mg/kg, male C57BL6 mice, plasma, 10 mg/kg i.p.
[4] = male C57BL6 mice, plasma, 4 mg/kg i.p.
[5] = male C57BL6 mice, plasma, 10 mg/kg i.p.

T1 sequence (P28223 whole entry): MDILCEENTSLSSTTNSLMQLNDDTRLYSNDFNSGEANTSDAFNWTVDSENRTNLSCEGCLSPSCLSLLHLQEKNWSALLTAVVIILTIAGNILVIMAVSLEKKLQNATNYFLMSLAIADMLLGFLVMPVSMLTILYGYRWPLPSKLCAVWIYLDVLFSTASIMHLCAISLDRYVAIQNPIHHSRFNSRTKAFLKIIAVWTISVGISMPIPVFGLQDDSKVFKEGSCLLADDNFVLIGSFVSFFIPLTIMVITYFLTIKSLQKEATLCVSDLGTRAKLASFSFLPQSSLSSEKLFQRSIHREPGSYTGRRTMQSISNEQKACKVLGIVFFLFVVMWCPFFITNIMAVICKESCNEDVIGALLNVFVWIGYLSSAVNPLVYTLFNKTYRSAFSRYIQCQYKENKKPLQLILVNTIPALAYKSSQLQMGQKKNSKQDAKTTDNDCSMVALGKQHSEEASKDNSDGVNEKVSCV

Structure (SMILES) | mean HTR (C57BL/6 mice) | HTR compared with the HTR response for 5-Br-DMT (one-way ANOVA, Dunnett) (C57BL/6 mice) | HTR (C57BL/6 mice; 7 mg/kg i.p.) | HTR (C57BL/6 mice; 10 mg/kg i.p. (maximum dose)) | Ki (5-HT2A receptor) | AUC [1, 2] | AUC [1, 3] | Cmax [1, 4] | Cmax [1, 5] | Ki (5-HT1A receptor) | HTR over increasing dosage (C57BL/6 mice; 0.5-10 mg/kg i.p., 0-15 min) | detectability in plasma ([1]; most mice, eight hours post-administration, i.p.) | AUCt0-tlast ([1]; male C57BL6 mice, plasma, 4 mg/kg i.p., 4 mg/kg)
CN(C)CCc1c[nH]c2cc(N3CCC3)ccc12 [Compound (XII)] | 6.25 | not statistically significantly higher | ~20 | ~12 | 23.7 µM | 39.7 ± 3 ng·h/mL | 145 ± 5.3 ng·h/mL | 92.8 ± 17.2 ng/mL | 302 ± 33.7 ng/mL | 20.8 µM |  |  | 
CN(C)CCc1c[nH]c2cc(F)cc(N3CCOCC3)c12 [Compound (XV)] | 5.0±0.82 | not statistically significantly higher |  |  | 0.72 µM | 241 ± 71.6 ng·h/mL | 590 ± 30.9 ng·h/mL | 101 ± 4.9 ng/mL | 459 ± 16.4 ng/mL | 1.83 µM | remains low | still detectable | 
CC(C)N(C)CCc1c[nH]c2cc(N3CCOCC3)c(F)cc12 [Compound (XVII)] | 22.25 |  |  | ~40 | 8.3 µM and 8.34 µM | 24.2 ± 1.6 ng·h/mL | 164 ± 7.2 ng·h/mL | 62.1 ± 3.9 ng/mL | 384 ± 14.2 ng/mL |  |  |  | 27.2 ± 1.6 ng·h/mL
CN(C)CCc1c[nH]c2cc(N3CCCC3)cc(F)c12 [Compound (XVIII)] | 5.25 | not statistically significantly higher |  | > 20 | 6.13 µM | 19.6 ± 0.7 ng·h/mL | 76.4 ± 11.5 ng·h/mL | 8.8 ± 1.2 ng/mL | 87.5 ± 8.5 ng/mL | 18.1 µM |  |  | 
